{"source": "patent US10874652B2", "about": "“Muscle regeneration” (The Research Foundation for The State University of New York, priority 2016, dated 2020)", "key": {"dystrophic (mdx4cv) mice [1]": {"tested_on": "dystrophic (mdx4cv) mice", "assay": "Grip strength, Kondziela's inverted screen test in dystrophic mice", "format": "in vivo, mouse", "protocol": "To test whether elastase inhibition is effective in counteracting the devastating effects of the muscular dystrophy symptoms, we injected dystrophic (mdx4cv) mice with either 100 mg/Kg body weight of Elastatinal dissolved in sterile saline solution (0.9% […]) or with vehicle (sterile saline solution) alone (n=3) twice a week for 6 weeks then measured the grip strength of all 4 limbs using Kondziela's inverted screen test. Each animal was offered three attempts to reach 90 seconds of grip before falling then the best performance was assigned a score (1 to 6 for every 15 seconds spent on the grid, e.g.: 1-14 seconds=score 1, 15-29 seconds=score 2, etc.). Scores were averaged and plotted as mean±the standard error of the mean.\nIn addition to the above mentioned experiment, Elastatinal was dissolved in a saline solution (0.9% NaCl) to a concentration of 20 mg/mL and then either 200 mg/Kg body weight of Elastatinal or an equal volume of saline solution were injected twice a week for 12 weeks intraperitoneally into dystrophic (mdx4cv) mice. At 8, 10 and 12 weeks of treatment, muscle function (grip strength) of the mice was measured using Kondziella's inverted screen test. A 1-6 score was assigned for every 15 seconds of the total time spent by the mouse on the inverted grid such that a score of 6 indicates at least 90 seconds of latency to fall. […] Error bars are S.E.M. **=p<0.01."}, "myoblasts": {"tested_on": "myoblasts", "assay": "Elastase-induced myoblast cell loss ex vivo", "format": "cell-based", "details": "100 μM inhibitor with 0.75 U/mL elastase, 24 hours, myoblasts on uncoated plates", "protocol": "In order to determine the effect of elastase inhibitors on cultures myoblasts, myoblasts were seeded at the density of 7,000 cells/well in 12 multi-well plates (Corning) and grown for 1 day in growth medium. Twenty-four hours after plating, 0.75 U/mL of purified elastase (Sigma Aldrich) were added to the culture medium in the absence (Ela) or presence of either 100 μM Sivelestat (Ela+Sivelestat) or 100 μM Elastatinal (Ela+Elastatinal) and cultured for additional 24 hours. Quantification of total cell numbers per image was done in triplicates and plotted as average±standard error of the mean. NT=non-treated cultures, that received neither elastase nor elastase inhibitors. **=p<0.01."}, "dystrophic (mdx4cv) mice [2]": {"tested_on": "dystrophic (mdx4cv) mice", "assay": "Muscle fibre size (minimum Feret diameter) in dystrophic mice", "format": "in vivo, mouse", "details": "200 mg/Kg intraperitoneally twice a week, 12 weeks, gastrocnemius muscle, vs saline", "protocol": "To test whether inhibition of elastase activity promoted muscle regeneration in vivo in dystrophic mice, dystrophic (mdx4cv strain) mice were treated with either the elastase inhibitor Elastatinal (dissolved in saline solution) or saline solution for 12 weeks and muscle fibre size was assayed.\nElastatinal (Enzo Life Sciences) was dissolved in a saline solution (0.9% NaCl) to the concentration of 20 mg/mL and then, either 200 mg/Kg body weight of Elastatinal or an equal volume of saline solution were injected twice a week intraperitoneally into the dystrophic (mdx4cv) mice. After 12 weeks of treatment animals were culled and several muscles dissected, embedded in Optimal Cutting Medium (OCT, Fisher) and frozen in liquid nitrogen-cooled isopentane (Sigma) for histopathological analysis.\nTo measure the extent of muscle regeneration, myofibre size was estimated. Sections of the gastrocnemius muscle of either Elastatinal-treated or saline-treated mice were immunostained to detect laminin which marks the periphery of each muscle fibre and then the programme SMASH′ was used to calculate the minimum Feret diameter as a direct measure of myofibre size."}, "dystrophic (mdx4cv) mice [3]": {"tested_on": "dystrophic (mdx4cv) mice", "assay": "Muscle inflammation, CD45+ leukocyte infiltration of gastrocnemius muscle", "format": "in vivo, mouse", "details": "200 mg/kg, 12 weeks, vs saline", "protocol": "(§1) The objective of this experiment was to determine whether elastase inhibitors can reduce inflammation and/or fibrosis. To test this, cross-sections of the gastrocnemius muscle of mice that were treated with either Elastatinal or saline solution were stained with Picrosirius red, or labelled with an anti-CD45 antibody or an anti-laminin antibody. Picrosirius red allows to differentiate between collagen and the rest of the tissue as it stains the collagen a different colour. The anti-CD45 antibody allows the detection of infiltrating leukocytes (which are a marker of inflammation), and the anti-laminin antibody allows the detection of the periphery of myofibres. Both, the amount of fibrosis and the amount of infiltrated CD45+ leukocytes were reduced with Elastatinal treatment, supporting the hypothesis that elastase activity inhibition reduces fibrosis and inflammation.\n(§2) For this experiment, the mice were treated with an injection of 200 mg/kg of Elastatinal dissolved in a saline solution (0.9% NaCl) to a concentration of 20 mg/mL. Control mice were treated with an equal volume of saline. […]\nTo measure the extent of inflammation, the numbers of infiltrating leucocyte, recognized by immunostaining for CD45 (BD Biosciences) were scored as percentage of area positive to CD45 immunostaining using a written script for Fiji softwate (available at http://fiji.sc) (FIG. 10 D)."}, "dystrophic (mdx4cv) mice [4]": {"tested_on": "dystrophic (mdx4cv) mice", "assay": "Muscle fibrosis, Picrosirius red staining of gastrocnemius muscle", "format": "in vivo, mouse", "details": "200 mg/kg, 12 weeks, vs saline", "protocol": "as §1, §2\nThe amount of Picrosirius red staining was quantified by selecting re pixels and quantifying the red area using the ImageJ function “Analyze particles”. Averages of 10 technical replicates for each one of 3 biological replicates (N=30) were analysed (FIG. 10 B)."}, "elastase": {"tested_on": "elastase", "assay": "Elastase activity in cell culture medium (fluorescent substrate cleavage)", "format": "biochemical", "details": "100 μM inhibitor, 0.75 U/mL purified elastase pre-incubated 1 hour", "protocol": "The percentage of substrate cleavage (substrate conversion to product) was monitored over time by recording product formation every minute for 30 minutes (30 cycles of instrument recording) using a Pierce EZ-Reader."}}, "data": [{"compound": "CC(C)C[C@H](NC(=O)N[C@H](C(=O)N[C@@H](CCC(N)=O)C(=O)N[C@@H](C)C=O)[C@@H]1CCNC(=N)N1)C(=O)O", "note": "[Elastatinal]", "values": [{"measurement": "muscle strength (grip strength)", "setting": "dystrophic (mdx4cv) mice [1]; 100 mg/Kg twice a week for 6 weeks, vs vehicle", "result": "improved muscle strength"}, {"measurement": "grip strength", "setting": "dystrophic (mdx4cv) mice [1]; 200 mg/Kg intraperitoneally twice a week for 12 weeks, measured at 8, 10 and 12 weeks, vs saline", "result": "statistically significantly improved grip strength"}, {"measurement": "elastase-induced cell loss", "setting": "myoblasts", "result": "prevents elastase-induced cell loss"}, {"measurement": "muscle fibre size (minimum Feret diameter)", "setting": "dystrophic (mdx4cv) mice [2]", "result": "increasing muscle fibre size"}, {"measurement": "amount of infiltrated CD45+ leukocytes", "setting": "dystrophic (mdx4cv) mice [3]", "result": "reduced"}, {"measurement": "amount of fibrosis", "setting": "dystrophic (mdx4cv) mice [4]", "result": "reduced"}, {"measurement": "reduction of elastase activity", "setting": "elastase", "result": "approximately 80%"}]}, {"compound": "CC(C)(C)C(=O)Oc1ccc(S(=O)(=O)Nc2ccccc2C(=O)NCC(=O)O)cc1", "note": "[Sivelestat]", "values": [{"measurement": "elastase-induced cell loss", "setting": "myoblasts", "result": "prevents elastase-induced cell loss"}, {"measurement": "reduction of elastase activity", "setting": "elastase", "result": "approximately 80%"}]}]}
